Data on five molecules can be found in patent publication US20080176792A1, “VEGFR-1 TARGETING PEPTIDES” (priority 2000, published 2008).

The test system of assay [1] is urothelial tumor cell line T24. Nature of the assay: Phage attachment to subconfluent cell monolayer. Format: cell-based, human. The following applies: 1x10^8 T.U. per well. An excerpt:
FIG. 7. Binding of selected phage clones to the human breast cancer cell line MDA-MBA435 (white bars) as well as the urothelial tumor cell lines T24 (light grey bars) and RT4 (dark grey bars). Insertless fd-tet phage were included as controls. Results are given as mean of triplicate wells relative to binding of fd-tet phage, that was set as 1. Input of phage was 1×10^8 T.U. per well. Bound phage were detected after intensive washing by infection with log phase K91 bacteria and plating of serial dilutions.
Binding of selected phage was examined with human adherent primary urothelial cells, the breast cancer cell line MDA-MB-435 and the transitional carcinoma cell lines RT4 and T24. All cells were grown to subconfluency in 48 well plates and free binding sites were blocked with 800 μl 30% FCS/DMEM (blocking medium) for 1 hour at 37° C. The blocking solution was then replaced by 200 μl 10% FCS/DMEM (washing medium) containing 1×10^8 cfu of each phage per well. After incubation for 2 hours at 4° C. to prevent unspecific endocytosis, unbound phage were removed by washing 7 times with 500 μl washing medium. For competition experiments increasing concentrations of the corresponding peptide or a control peptide (CARAC, SEQ ID NO:5) were added during the incubation. Bound phage were determined by infection with 500 μl log phase K91 culture and plating of serial dilutions. […]

A further assay deals with human bone marrow cells. As to the kind of experiment: Binding of single phage clones to bone marrow cells by BRASIL. The following applies: single phage clone; negative control fd-tet phage, positive control RGD-4C phage. Format: cell-based. An excerpt: Fresh human ribs removed during surgery for access to underlying tumors were sectioned to expose the bone marrow surface. No significant damage to the bone marrow was inflicted to the tissue and the morphology was well preserved during after the procedure. The bone samples were washed (gently) 5 times with ice cold DMEM/0.15% BSA (sterile filtered). The marrow was removed by gently scraping cells from the bone. Cells were washed twice by centrifugation and resuspension in DMEM/BSA to remove debris and fat. Cells were resuspended in DMEM/BSA (about 10^7 cells per ml) and incubated with a phage display library (10^9 TU) prepared as described above. After incubation for 3 hours on ice, the cells were centrifuged through an organic phase consisting of a 9:1 mixture of dibutylphthalate:cyclohexane. Centrifugation occurred for 10 min at 10,000×g. The bottom of the centrifuge tube was snap frozen at −80° C. and phage were recovered by bacterial infection as described above. The selection was repeated for 3 more rounds of BRASIL and 90 clones were sequenced.
A system has been designed to analyze the data resulting from peptide library screenings, adapted from the SAS package. The system is available upon request from the M. D. Anderson Cancer Center. […] The positive control was phage containing an RGD-4C insert, which is known to bind to bone marrow. […]

Another assay concerns porcine bladder mucosa. As to the kind of experiment: Dot blot chamber assay after removal of the GAG-layer. The format is cell-based. The following applies: 0.1M HCl for 2 min; relative to untreated mucosa set to 1. As to the method: FIG. 10. Influence of the GAG-layer on phage binding. In the dot blot chamber assay portions of a porcine bladder mucosa were treated with 0.1M HCl for 2 min prior to remove the GAG-layer. Binding to treated surface is given relative to untreated surface, that was set as 1. Bound phage were detected after intensive washing by infection with log phase K91 bacteria and plating of serial dilutions.
(§1) Removal of the glucosaminoglycan- (GAG-) layer on intact mucosa samples was performed as a dot blot chamber assay. Half of the wells were incubated with 200 μl 0.1M HCl per well for 2 min, intensely rinsed with blocking solution and both parts blocked as before. Results are given relative to fd-tet phage to untreated mucosa, that was set to 1.
(§2) Using the same assay the influence of the glucosaminoglycan (GAG) layer on binding of several phage to intact mucosa was examined. The GAG-layer was removed as described above. Half of the mucosa of human ureter and porcine bladder specimens were treated inside the dot blot chamber with […] for 2 min, extensively washed and the binding assay performed as before.

Another assay relates to human ureter mucosa. Described as above. The format is cell-based. The following applies: human ureter sample. As to the method: as §1, §2
The test system of another assay is leptin. The following applies: cited from earlier work.
The target in assay [2] is T1, recombinant human VEGFR-2/Fc (human, UniProt P35968 20-764).
T1 construct: Bought receptor/Fc chimera; not shown: Fc region of human IgG1
T1 sequence (P35968 20-764 limits assumed): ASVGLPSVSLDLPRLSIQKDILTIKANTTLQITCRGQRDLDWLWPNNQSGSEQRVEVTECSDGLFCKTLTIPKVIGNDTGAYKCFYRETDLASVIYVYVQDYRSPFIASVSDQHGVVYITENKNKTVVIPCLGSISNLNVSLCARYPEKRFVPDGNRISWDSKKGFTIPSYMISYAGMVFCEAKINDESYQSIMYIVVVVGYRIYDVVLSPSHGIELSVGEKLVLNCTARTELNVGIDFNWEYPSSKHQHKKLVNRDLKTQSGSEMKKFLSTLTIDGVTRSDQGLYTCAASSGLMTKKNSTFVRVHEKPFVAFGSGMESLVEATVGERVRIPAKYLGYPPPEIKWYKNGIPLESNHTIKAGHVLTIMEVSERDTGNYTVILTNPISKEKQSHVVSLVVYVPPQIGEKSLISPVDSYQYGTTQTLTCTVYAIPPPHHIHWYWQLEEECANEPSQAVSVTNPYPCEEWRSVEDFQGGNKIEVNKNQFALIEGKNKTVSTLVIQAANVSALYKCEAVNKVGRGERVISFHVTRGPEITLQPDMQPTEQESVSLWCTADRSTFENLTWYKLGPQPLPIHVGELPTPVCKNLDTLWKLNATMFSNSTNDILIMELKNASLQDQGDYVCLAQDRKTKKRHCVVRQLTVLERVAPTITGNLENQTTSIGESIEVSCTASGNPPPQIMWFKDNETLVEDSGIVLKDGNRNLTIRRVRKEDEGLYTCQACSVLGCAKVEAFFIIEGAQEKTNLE
As to the kind of experiment: phage binding to immobilized receptor, recovery by bacterial infection. As to the method: (§3) Human VEGFR-1, human VEGFR-2, rat NRP-1, and rat NRP-2 (1 μg in 50 μl of PBS) were immobilized on microtiter well plates overnight at 4° C. The wells were washed twice with PBS, blocked with PBS containing 3% BSA for 2 h at room temperature, and then incubated with 10⁹ TU of either […] […] (SEQ ID NO:11) phage, or fd-tet phage in 50 μl of PBS/1.5% BSA. After 1 hr at room temperature, wells were washed nine times with PBS and phage were recovered by bacterial infection. Serial dilutions were plated onto Luria-Bertani (LB) medium supplemented with tetracycline. VEGF₁₆₅, PDGF-BB, or synthetic peptides were used at the indicated concentrations and pre-incubated with the immobilized proteins to evaluate competitive inhibition of phage binding.

The target in a further assay is T2, recombinant rat NRP-1/Fc (rat; human, UniProt Q9QWJ9 22-854, limits assumed).
T2 construct: Bought receptor/Fc chimera; also called rat Neuropilin-1; neuropilin-1; not shown: Fc region of human IgG1
T2 sequence (looked up): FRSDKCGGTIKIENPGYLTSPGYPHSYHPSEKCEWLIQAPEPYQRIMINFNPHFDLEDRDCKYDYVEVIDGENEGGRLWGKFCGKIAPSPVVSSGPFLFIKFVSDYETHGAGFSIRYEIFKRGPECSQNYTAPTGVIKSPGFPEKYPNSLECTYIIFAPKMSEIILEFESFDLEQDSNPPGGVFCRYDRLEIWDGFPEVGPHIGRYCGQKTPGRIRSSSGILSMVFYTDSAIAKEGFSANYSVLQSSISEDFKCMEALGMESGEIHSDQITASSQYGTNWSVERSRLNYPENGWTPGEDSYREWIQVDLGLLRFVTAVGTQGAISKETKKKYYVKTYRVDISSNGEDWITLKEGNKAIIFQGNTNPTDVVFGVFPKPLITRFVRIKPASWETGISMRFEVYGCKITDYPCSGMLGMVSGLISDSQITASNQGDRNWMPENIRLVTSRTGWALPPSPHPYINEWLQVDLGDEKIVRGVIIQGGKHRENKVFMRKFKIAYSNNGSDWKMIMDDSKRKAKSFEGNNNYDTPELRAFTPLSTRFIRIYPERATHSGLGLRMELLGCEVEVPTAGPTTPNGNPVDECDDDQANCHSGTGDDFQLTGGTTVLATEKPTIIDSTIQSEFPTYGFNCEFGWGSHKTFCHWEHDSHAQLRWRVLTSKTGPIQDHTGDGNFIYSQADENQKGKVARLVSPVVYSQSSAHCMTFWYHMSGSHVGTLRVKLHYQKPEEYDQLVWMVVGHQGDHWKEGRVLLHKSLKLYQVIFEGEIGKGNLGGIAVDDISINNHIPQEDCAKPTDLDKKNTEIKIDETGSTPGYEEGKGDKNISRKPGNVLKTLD
Described as above. As to the method:
as §3

Another assay addresses T3, recombinant rat NRP-2/Fc (rat; human, UniProt O35276 23-858, limits assumed).
T3 construct: Bought receptor/Fc chimera; also called neutropilin-2 (NRP-2) receptor; not shown: Fc region of human IgG1
T3 sequence (looked up): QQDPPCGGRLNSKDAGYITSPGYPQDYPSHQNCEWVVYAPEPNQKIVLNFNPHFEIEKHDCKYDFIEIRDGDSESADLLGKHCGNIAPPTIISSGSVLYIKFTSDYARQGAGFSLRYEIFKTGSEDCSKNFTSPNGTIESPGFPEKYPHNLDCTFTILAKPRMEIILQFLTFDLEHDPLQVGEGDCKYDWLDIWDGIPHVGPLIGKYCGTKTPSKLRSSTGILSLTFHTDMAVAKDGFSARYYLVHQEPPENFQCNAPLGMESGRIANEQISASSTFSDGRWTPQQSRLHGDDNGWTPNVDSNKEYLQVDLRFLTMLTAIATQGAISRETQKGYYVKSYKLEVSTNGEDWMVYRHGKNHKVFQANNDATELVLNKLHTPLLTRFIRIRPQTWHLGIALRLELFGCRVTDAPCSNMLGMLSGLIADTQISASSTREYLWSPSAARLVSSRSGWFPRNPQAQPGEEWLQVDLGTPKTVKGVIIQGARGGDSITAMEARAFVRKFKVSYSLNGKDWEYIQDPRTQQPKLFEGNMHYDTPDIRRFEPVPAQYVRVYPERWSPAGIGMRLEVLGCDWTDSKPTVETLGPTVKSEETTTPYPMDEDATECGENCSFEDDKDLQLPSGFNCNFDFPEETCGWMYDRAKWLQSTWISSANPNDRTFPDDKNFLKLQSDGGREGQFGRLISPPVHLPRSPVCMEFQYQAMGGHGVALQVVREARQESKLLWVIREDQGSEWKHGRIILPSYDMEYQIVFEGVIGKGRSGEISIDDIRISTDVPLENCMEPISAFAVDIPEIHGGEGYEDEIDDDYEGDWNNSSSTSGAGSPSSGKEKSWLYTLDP
The assay is described as above. As to the method:
as §3

The target of assay [3] is T4, recombinant human VEGFR-1 (human, UniProt P17948 27-758, limits assumed).
T4 construct: Bought; immobilized on microtiter wells (1 ug in 50 ul PBS); also called Flt1
T4 sequence (P17948 27-758 limits assumed): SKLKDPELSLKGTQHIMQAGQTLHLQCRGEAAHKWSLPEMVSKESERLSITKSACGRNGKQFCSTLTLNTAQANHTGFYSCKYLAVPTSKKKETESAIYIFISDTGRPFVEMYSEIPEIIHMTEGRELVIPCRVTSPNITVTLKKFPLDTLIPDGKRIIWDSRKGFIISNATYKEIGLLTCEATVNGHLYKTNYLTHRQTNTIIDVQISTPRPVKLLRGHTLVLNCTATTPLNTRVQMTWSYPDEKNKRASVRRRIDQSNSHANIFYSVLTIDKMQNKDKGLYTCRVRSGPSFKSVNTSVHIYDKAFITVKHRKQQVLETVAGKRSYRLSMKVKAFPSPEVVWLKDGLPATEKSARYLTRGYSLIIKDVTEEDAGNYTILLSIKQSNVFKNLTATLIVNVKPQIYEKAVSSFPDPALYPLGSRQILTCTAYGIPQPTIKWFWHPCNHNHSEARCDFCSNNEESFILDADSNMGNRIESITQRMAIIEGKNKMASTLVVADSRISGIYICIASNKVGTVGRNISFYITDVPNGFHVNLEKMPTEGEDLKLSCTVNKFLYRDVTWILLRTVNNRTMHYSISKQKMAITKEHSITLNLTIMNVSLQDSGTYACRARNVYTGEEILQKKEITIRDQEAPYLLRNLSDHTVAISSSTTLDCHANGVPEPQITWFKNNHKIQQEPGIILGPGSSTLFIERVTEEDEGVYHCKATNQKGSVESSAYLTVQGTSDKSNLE
As to the kind of experiment: phage binding to immobilized receptor, against insertless fd-tet phage (not shown). As to the method:
as §3

For assay [4], the target named is BSA (bovine serum albumin) (bovine, UniProt P02769 25-607). Nature of the assay: phage binding to immobilized protein, recovery by bacterial infection.
Sequence of BSA (bovine serum albumin) (P02769 25-607 limits assumed): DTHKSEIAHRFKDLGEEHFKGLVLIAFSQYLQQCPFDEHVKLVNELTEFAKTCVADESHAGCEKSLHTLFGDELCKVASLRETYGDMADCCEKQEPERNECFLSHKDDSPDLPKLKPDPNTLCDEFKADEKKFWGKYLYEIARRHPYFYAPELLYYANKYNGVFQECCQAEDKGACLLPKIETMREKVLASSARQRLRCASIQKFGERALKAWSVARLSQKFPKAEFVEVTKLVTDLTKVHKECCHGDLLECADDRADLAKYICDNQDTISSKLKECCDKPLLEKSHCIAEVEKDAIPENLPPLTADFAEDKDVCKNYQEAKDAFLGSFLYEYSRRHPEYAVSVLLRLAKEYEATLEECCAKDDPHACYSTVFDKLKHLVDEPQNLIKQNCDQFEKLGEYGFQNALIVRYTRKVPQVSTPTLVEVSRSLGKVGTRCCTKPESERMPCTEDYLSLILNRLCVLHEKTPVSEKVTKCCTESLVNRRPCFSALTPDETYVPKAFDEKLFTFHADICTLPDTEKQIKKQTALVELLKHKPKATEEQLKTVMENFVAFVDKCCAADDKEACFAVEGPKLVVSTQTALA

Ends that are not written are not given here.

Consider CGQEISGLC, for which, in [1], the “binding to T24 tumor cells” value is recorded as “bound”.
For the molecule CLGWRAAAC, in the assay with human bone marrow cells, the “binding to human bone marrow cells” value was “over twice as high as the positive control”.
Turning to CWGGLSGLC, the “increase of phage binding after GAG-removal” value is given as 4.2 fold in the assay on porcine bladder mucosa and 3.4 fold with human ureter mucosa.
For the molecule DLLHLLAFSKSCSLLP, in the assay with leptin, the “leptin activity in vivo” value is recorded as “block leptin activity”.

B1: phage clone-19 displaying the peptide CPQPRPLC (SEQ ID NO:6) (peptide)
peptide: CPQPRPLC
modifications: not fully specified (bridges); cysteine pairing not given here; also: displayed on pIII of filamentous phage
notes: Tested as whole filamentous phage (10^9 TU per well), not as free peptide; The peptide is expressed in the pIII protein; also called clone 19 phage; not shown: The phage pIII coat protein that carries the insert, and the residues flanking the insert
B1: the binding result in assay [2] is reported as “no binding (tested: 10^9 TU of phage in 50 ul)”; with recombinant rat NRP-1/Fc it was “binds”; in the assay with recombinant rat NRP-2/Fc it was “no binding (tested: 10^9 TU of phage in 50 ul)”; in [4], “no binding (tested: 10^9 TU of phage in 50 ul)”. Besides, in [3], the “fold enrichment of binding over fd-tet phage” value is over 1000 fold.
